Laboratory results as given in US20130289083A1, “IDO Inhibitors” (priority 2007, published 2013).
Like-named read-outs stand apart in the source and are kept apart here.

Key:
murine IDO = target: T1, murine IDO (Mus musculus, UniProt P28776); assay: Cell based IDO/kynurenine assay in 293-T-Rex cells expressing murine IDO; details: cells expressing murine IDO, read-out: mIDO EC50
T1 construct: expressed in transfected cells; host or cells: 293-T-REx cells (Invitrogen), doxycycline-inducible CMV-tet promoter
Experimental: (§1) Transfected cells were selected in DBZ medium (DMEM, 10% FBS, 1× Penicillin+Streptomycin, 2 mM L-glutamine, 5 μg/mL blasticidin and 25 μg/ml Zeocin) at 37° C. with a 5% CO2 in air atmosphere. Individual clones were isolated by limiting dilution cloning from these populations.
The cells incubated in Neutral medium serve as negative control of the assay. The cells incubated in Induction medium and without inhibitor serve as the positive control of the assay. The incubation is carried out for 16 h at 37° C. in a cell culture incubator. 200 μL of medium are transferred to U-bottom polypropylene 96-well plates containing 25 μL of 30% TCA, incubated 30 minutes at 60° C. and centrifuged at 3400 g for 5 minutes. 150 μL of the clear supernatant is transferred to a polystyrene 96-well plate containing 50 μL of 4% (w/v) of p-dimethylaminobenzaldehyde in acetic acid, incubated for 10 min. Kynurenine concentration is determined by measuring the absorbance at 480 nm.

[1] = target: purified human IDO protein (Homo sapiens, UniProt P14902); assay: Enzymatic IDO assay (kynurenine production, absorbance 480 nm); details: enzymatic activity
human IDO = human IDO (Homo sapiens, UniProt P14902); assay: Cell based IDO/kynurenine assay in IDO-293-T-Rex cells; details: kynurenine production, read-out: hIDO EC50
Experimental: 293-T-REx™ cells (Invitrogen) constitutively express a tet operator binding repressor protein and are maintained in DMEM, 10% FBS, 1× Penicillin+Streptomycin, 2 mM L-glutamine, 5 μg/mL blasticidin at 37° C. with a 5% CO2 in air atmosphere and typically split prior to confluency. Cells were passed by splitting the culture 1/10—by removing media by aspiration, washing 1× with PBS, incubating with 0.25% trypsin/EDTA until the cells detach, disbursing the cells in fresh growth media, and plating at 1/10 dilutions in fresh growth media. For long term cryopreservation, cells are detached from the plate as described above, collected by centrifugation, resuspended in freeze medium (growth medium, 10% DMSO), stored in 1.8 mL cyropreservation vials (˜2−5×10^6 cells per vial), in liquid nitrogen vapor storage tanks.
as §1, with “IDOl-expressing 293-T-Rex™ cell lines were generated by stable transfection of plasmid pcDNA-tetO-IDO expressing human IDO or murine IDO under the control of the doxycycline-inducible CMV-tet promoter. Transfected” for “Transfected”
[…]. The cells incubated in Neutral medium serve as negative control of the assay. The cells incubated in Induction medium and without inhibitor serve as the positive control of the assay. The incubation is carried out for 16 h at 37° C. in a cell culture incubator. 200 μL of medium are transferred to U-bottom polypropylene 96-well plates containing 25 μL of 30% TCA, incubated 30 minutes at 60° C. and centrifuged at 3400 g for 5 minutes. 150 μL of the clear supernatant is transferred to a polystyrene 96-well plate containing 50 μL of 4% (w/v) of p-dimethylaminobenzaldehyde in acetic acid, incubated for 10 min. Kynurenine concentration is determined by measuring the absorbance at 480 nm.
The conditions of the assay were as described in the examples.

[2] = hIDO IC50, Table 15, recombinant human IDO
[3] = Table 15, 293T cells expressing human IDO
[4] = hIDO IC50, Table 16, recombinant human IDO
[5] = Table 16, 293T cells expressing human IDO
[6] = hIDO IC50, recombinant human IDO, values reported in ranges
[7] = 293T cell line stably expressing human IDO, values reported in ranges
[8] = read-out: hIDO IC50, recombinant human IDO, values reported in ranges

T1 sequence (P28776 whole entry): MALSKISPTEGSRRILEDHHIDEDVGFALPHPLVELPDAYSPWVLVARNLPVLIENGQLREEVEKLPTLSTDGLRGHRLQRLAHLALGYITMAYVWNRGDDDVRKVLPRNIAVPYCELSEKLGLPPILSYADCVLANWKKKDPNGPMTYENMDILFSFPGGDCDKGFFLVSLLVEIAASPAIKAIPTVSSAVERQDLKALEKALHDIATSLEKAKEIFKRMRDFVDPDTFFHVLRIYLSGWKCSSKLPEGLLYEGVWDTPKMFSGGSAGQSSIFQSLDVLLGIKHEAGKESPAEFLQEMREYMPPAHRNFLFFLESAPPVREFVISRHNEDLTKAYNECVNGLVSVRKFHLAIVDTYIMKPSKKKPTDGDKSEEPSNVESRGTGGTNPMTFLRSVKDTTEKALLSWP
Chain of human IDO (P14902 whole entry): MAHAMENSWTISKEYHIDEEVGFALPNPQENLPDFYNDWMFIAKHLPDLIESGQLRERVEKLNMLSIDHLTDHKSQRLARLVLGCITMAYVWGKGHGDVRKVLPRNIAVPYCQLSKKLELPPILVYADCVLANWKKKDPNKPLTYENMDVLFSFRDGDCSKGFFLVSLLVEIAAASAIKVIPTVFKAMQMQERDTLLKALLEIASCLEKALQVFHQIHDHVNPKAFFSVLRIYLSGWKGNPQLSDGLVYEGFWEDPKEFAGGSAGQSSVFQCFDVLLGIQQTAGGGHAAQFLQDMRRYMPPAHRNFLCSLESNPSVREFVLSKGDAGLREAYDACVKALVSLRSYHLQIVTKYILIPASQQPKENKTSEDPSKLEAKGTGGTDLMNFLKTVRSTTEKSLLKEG
Chain of purified human IDO protein (P14902 whole entry P110S/E119G): as the sequence (P14902 whole entry) above, with P110S, E119G counted along it

| Compound | EC50 (murine IDO; Table 15) [µM] | IC50 [1, 2] [µM] | EC50 (human IDO; [3]) [µM] | EC50 (human IDO; [7]) [µM] | further results |
| --- | --- | --- | --- | --- | --- |
| NOCc1cccc2ccccc12 [compound 1767, O-(naphthalen-1-ylmethyl)hydroxylamine] |  |  |  |  | EC50 (murine IDO; Table 16): 10 to 100 µM; IC50 [1, 4]: < 10 µM; EC50 (human IDO; [5]): < 10 µM |
| NOCc1csc2ccc(Cl)cc12 [compound 1743, O-((5-chlorobenzo[b]thiophen-3-yl)methyl)hydroxylamine] | 10 to 100 | < 10 | < 10 |  |  |
| NOCCc1cccc([N+](=O)[O-])c1 [compound 1752, O-(3-nitrophenethyl)hydroxylamine] |  |  |  |  | EC50 (murine IDO; Table 16): < 10 µM; IC50 [1, 4]: < 10 µM; EC50 (human IDO; [5]): < 10 µM |
| C=CCC(ON)c1cccc([N+](=O)[O-])c1 (centres unmarked) [compound 1755, O-(1-(3-nitrophenyl)but-3-enyl)hydroxylamine] |  |  |  |  | EC50 (murine IDO; Table 16): < 10 µM; IC50 [1, 4]: < 10 µM; EC50 (human IDO; [5]): < 10 µM |
| NOCc1ccccc1Br [compound 1675, O-(2-bromobenzyl)hydroxylamine] |  |  |  |  | EC50 (murine IDO; Table 16): < 10 µM; IC50 [1, 4]: < 10 µM; EC50 (human IDO; [5]): < 10 µM |
| NOCc1ccc2ncccc2c1 [compound 1741, O-(quinolin-6-ylmethyl)hydroxylamine] | < 10 | 10 to 100 | < 10 |  |  |
| NOCc1cccc([N+](=O)[O-])c1 [compound 317, O-(3-nitrobenzyl)hydroxylamine] |  |  |  | < 20 | EC50 (murine IDO; Table 16): < 10 µM; IC50 [1, 4]: < 10 µM; IC50 [1, 6]: < 20 µM; EC50 (human IDO; [5]): < 10 µM |
| NOCc1ccccc1C(F)(F)F [compound 1677, O-(2-(trifluoromethyl)benzyl)hydroxylamine] |  |  |  |  | EC50 (murine IDO; Table 16): 10 to 100 µM; IC50 [1, 4]: < 10 µM; EC50 (human IDO; [5]): < 10 µM |
| NOCc1c(F)c(F)c(F)c(F)c1F [compound 1667, O-(perfluorobenzyl)hydroxylamine] |  |  |  |  | EC50 (murine IDO; Table 16): 10 to 100 µM; IC50 [1, 4]: 10 to 100 µM; EC50 (human IDO; [5]): < 10 µM |
| NOCc1ccccc1 [compound 1666, O-benzylhydroxylamine] |  |  |  |  | EC50 (murine IDO; Table 16): < 10 µM; IC50 [1, 4]: < 10 µM; EC50 (human IDO; [5]): < 10 µM |
| Cc1nc(-c2ccccc2)ncc1CON [compound 1740, O-((4-methyl-2-phenylpyrimidin-5-yl)methyl)hydroxylamine] | < 10 | 10 to 100 | < 10 |  |  |
| NOCc1ccncc1 [compound 1737, O-(pyridin-4-ylmethyl)hydroxylamine] | < 10 | 10 to 100 | < 10 |  |  |
| S=C(NCCc1c[nH]c2ccccc12)SCCc1cccc(Cl)c1 [compound 8, 3-Chlorophenethyl 2-(1H-indol-3-yl)ethylcarbamodithioate] |  |  |  | 100 to 1000 | IC50 [1, 6]: 100 to 1000 µM |
| O=C(O)CC(=O)c1ccc(F)cc1 [compound 313, 3-(4-fluorophenyl)-3-oxopropanoic acid] |  |  |  | 100 to 1000 | IC50 [1, 6]: 100 to 1000 µM |
| S=C(NCCc1c[nH]c2ccccc12)SCCc1c[nH]c2ccccc12 [compound 30, 2-(1H-Indol-3-yl)ethyl 2-(1H-indol-3-yl)ethylcarbamodithioate] |  |  |  | 20 to 100 | IC50 [1, 6]: 100 to 1000 µM |
| S=C(NCCc1c[nH]c2ccccc12)SCc1noc2ccccc12 [compound 52, Benzo[d]isoxazol-3-ylmethyl 2-(1H-indol-3-yl)ethylcarbamodithioate] |  |  |  | 20 to 100 | IC50 [1, 6]: 20 to 100 µM |
| COc1cccc(CCSC(=S)NCCc2c[nH]c3ccccc23)c1 [compound 10, 3-methoxyphenethyl 2-(1H-indol-3-yl)ethylcarbamodithioate] |  |  |  | 100 to 1000 | IC50 [1, 6]: 100 to 1000 µM |
| CC(=O)C1C2CCC(C2)C1(C)C (centres unmarked) [compound 289, 1-(3,3-dimethylbicyclo[2.2.1]heptan-2-yl)ethanone] |  |  |  | 1000 to 10000 | IC50 [1, 6]: 100 to 1000 µM |
| CC(=O)N1C(=O)/C(=C2/SC(=S)NC2=O)c2ccccc21 [compound 149] |  |  |  | 20 to 100 | IC50 [1, 6]: 100 to 1000 µM |
| Oc1cc(O)nc(SCc2ccccc2)n1 [compound 222, 2-(benzylthio)pyrimidine-4,6-diol] |  |  |  | 20 to 100 | IC50 [1, 6]: 100 to 1000 µM |
| Nc1ccc2[nH]cc(C(=O)O)c2c1 [compound 352, 5-amino-1H-indole-3-carboxylic acid] |  |  |  | 1000 to 10000 | IC50 [1, 6]: 100 to 1000 µM |
| Nc1ccccc1NC(=O)CCc1csc2ccccc12 [compound 739, N-(2-aminophenyl)-3-(benzo[b]thiophen-3-yl)propanamide] |  |  |  | 100 to 1000 | IC50 [1, 6]: 100 to 1000 µM |
| CSC(=S)NCCc1cccc(Cl)c1 [compound 14] |  |  |  | 100 to 1000 | IC50 [1, 8]: 100 to 1000 µM |
| CSC(=S)NCCc1c[nH]c2cc(C(F)(F)F)cc(C(F)(F)F)c12 [compound 44] |  |  |  | 1000 to 10000 | IC50 [1, 8]: 100 to 1000 µM |

More lines, main results first:

| EC50 (murine IDO; Table 15) [µM] | IC50 [1, 2] [µM] | EC50 (human IDO; [3]) [µM] | EC50 (human IDO; [7]) [µM] | Compound | further results |
| --- | --- | --- | --- | --- | --- |
| 10 to 100 | 10 to 100 | < 10 |  | NOC(CC1CCCCC1)c1ccccc1 (centres unmarked) [compound 1925, O-(2-cyclohexyl-1-phenylethyl)hydroxylamine] |  |
| < 10 | < 10 | < 10 |  | NOCc1cc(Cl)ccc1-c1ccc(Cl)cc1 [compound 1892, O-((4,4′-dichlorobiphenyl-2-yl)methyl)hydroxylamine] |  |
| 10 to 100 | < 10 | < 10 |  | NOCc1cc(Cl)ccc1-c1ccc(Cl)c(Cl)c1 [compound 1919, O-((3′,4,4′-trichlorobiphenyl-2-yl)methyl)hydroxylamine] |  |
| < 10 | < 10 | < 10 |  | NOCc1cccc(NCc2ccccc2)c1 [compound 1872, 3-(aminooxymethyl)-N-benzylaniline] |  |
| 10 to 100 | < 10 | < 10 |  | NOC(Cc1ccccc1)c1ccccc1 (centres unmarked) [compound 1921, O-(1,2-diphenylethyl)hydroxylamine] |  |
| < 10 | < 10 | < 10 |  | COc1ccc(OC)c(CON)c1 [compound 1771, O-(2,5-dimethoxybenzyl)hydroxylamine] |  |
| 100 to 1000 | 10 to 100 | < 10 |  | NOCc1cccc(-c2ccncc2)c1 [compound 1888, O-(3-(pyridin-4-yl)benzyl)hydroxylamine] |  |
| 10 to 100 | 10 to 100 | < 10 |  | Cc1ccc(-c2cccc(CON)c2)cc1 [compound 1881, O-((4′-methylbiphenyl-3-yl)methyl)hydroxylamine] |  |
| 10 to 100 | < 10 | < 10 |  | COc1ccc(-c2ccc(Cl)cc2CON)cc1 [compound 1914, O-((4-chloro-4′-methoxybiphenyl-2-yl)methyl)hydroxylamine] |  |
| 100 to 1000 | 100 to 1000 | 10 to 100 |  | NOCc1cccc(NCc2ccccc2)c1 [compound 1828, 3-(aminooxymethyl)-N-benzylaniline] |  |
| 10 to 100 | < 10 | < 10 |  | NOC(c1ccccc1)C1CCCCC1 (centres unmarked) [compound 1920, O-(cyclohexyl(phenyl)methyl)hydroxylamine] |  |
|  | < 10 | < 10 |  | NOCc1cc(Cl)ccc1-c1cccs1 [compound 1931, O-(5-chloro-2-(thiophen-2-yl)benzyl)hydroxylamine] |  |
|  | < 10 | < 10 |  | NOCc1cc(Cl)ccc1-c1ccc2[nH]ccc2c1 [compound 1930, O-(5-chloro-2-(1H-indol-5-yl)benzyl)hydroxylamine] |  |
|  | < 10 | < 10 |  | CN(C)c1ccc(-c2ccc(Cl)cc2CON)cc1 [compound 1934, 2′-(aminooxymethyl)-4′-chloro-N,N-dimethylbiphenyl-4-amine] |  |
